Test: gradient 5% acetonitrile 3 min, to 50% in 2 min, to 85% in 15 min, held 3 min, 100 µL/min
Settings: column: Zorbax Extend-C18 2.1 x 50 mm; eluents: water / acetonitrile, 0.1% formic acid
Procedure, shortened: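 Mixtures of ~100 pure standards were chromatographed on a Zorbax Extend-C18 column (2.1 × 50 mm, 1.8 μm) at 100 μL/min using water and acetonitrile, each with 0.1% formic acid. Detection used a quadrupole time-of-flight mass spectrometer in positive and negative ionization mode, and data collection spanned 3 months. Retention time was obtained from adduct peaks picked computationally and each checked manually.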

| SMILES | RP-LC retention time [s] |
| --- | --- |
| CCOc1ccccc1CNC(=O)C1CCN(C(=O)C2Sc3ccccc3NC2=O)CC1 (centres undefined) | 779 |
| COc1ccc2cccc(NC(=O)c3c(F)cccc3Cl)c2n1 | 1090 |
| O=C(Nc1cccc(Br)c1)C1CCN(c2nccnc2Sc2ccccc2)CC1 | 1190 |
| CCOc1ccccc1CNC(=O)CCc1nnc2c3cc(-c4ccc(F)cc4)nn3ccn12 | 830 |
| CC1CCN(C2=NCCN2C(=O)c2c(F)cccc2F)CC1 | 660 |
| O=C(O)c1nnn(-c2cccc(F)c2)c1-c1ccccn1 | 671 |
| COc1cc(NC(=O)C2CCCN(c3cc(=O)n(C)c(=O)n3C)C2)cc(OC)c1 (centres undefined) | 708 |
| Cc1ccc(CN2CCCC(c3nc(C(C)C)no3)CCNC(=O)CC2)o1 (centres undefined) | 636 |
| CCc1nccn1Cc1noc(-c2ccccc2C)n1 | 649 |
| COc1ccc(C2Nc3ccc(C)cc3[C@H]3OCCC[C@@H]23)cc1O (some centres undefined) | 894 |
| Cc1nnc(-c2ccc(OCC(=O)N(C(C)C)C(C)C)cc2)o1 | 708 |
| O=C(NCc1cccs1)C1CCN(c2cnc(N3CCSCC3)nc2)CC1 | 751 |
| CN1CCCN(C(c2ccccc2)c2ccc(Cl)cc2)CC1 (centres undefined) | 796 |
| CCN(CC)CCNC(=O)c1sc(COc2ccccc2)nc1C | 638 |
| COC(=O)c1c(C)[nH]c(C(=O)N2CCCC(C(=O)N3CCN(c4ccc(OC)cc4)CC3)C2)c1C (centres undefined) | 707 |
| O=C(c1ccc(-c2cncnc2)nc1)N1CCN(c2ccc(Cl)cc2)CC1 | 796 |
| COc1cccc(NC(=O)N2CCN(c3cc(C)nc(N4CCOCC4)n3)CC2)c1 | 628 |
| COc1ccc(N2CCN(c3cc(SCC(=O)NCc4ccccc4)ncn3)CC2)cc1 | 823 |
| O=C(NCc1cccc(C(F)(F)F)c1)C1CCN(c2cc(N3CCOCC3)ncn2)CC1 | 672 |
| CCOc1ccc(NC(=O)NCCn2c(C(F)(F)F)nc3cccnc32)cc1 | 756 |

| SMILES | RP-LC retention time [s] |
| --- | --- |
| Cc1cccc(CN2C(=O)N(c3ccc(F)cc3)c3ncccc3S2(=O)=O)c1 | 1090 |
| CCOC1CCOC2(CCN(C(=O)c3ccco3)CC2)C1 (centres undefined) | 691 |
| c1ccc(-n2nnc(-c3noc(-c4ccccn4)n3)c2-c2ccncc2)cc1 | 718 |
| CCN(CC)C(=O)c1cnc2nc(C)ccc2c1Nc1ccc(S(N)(=O)=O)cc1 | 574 |
| CCOC(=O)c1c(C)[nH]c(C(=O)N2CCC(CC(=O)NC3CC3)CC2)c1C | 654 |
| CCc1cccc(NC(=O)C2CCN(S(=O)(=O)c3cn(C(C)C)cn3)CC2)c1 | 840 |
| O=C(NCCCc1ccccc1)C1CCc2nc(N3CCOCC3)ncc2C1 (centres undefined) | 744 |
| COC(=O)c1cc(OCC(=O)NC2CCCC2)c2cc(OC)ccc2n1 | 739 |
| COc1ccc(Cc2nnc3sc(-c4ccccc4)nn23)cc1 | 810 |
| Cc1nn(CC(=O)NCCC(C)C)c(=O)c2nc(-c3ccccc3)sc12 | 871 |
| O=C(CN1C(=O)COc2ccc(C(=O)N3CCCC3)cc21)N1CCN(c2ccccc2)CC1 | 718 |
| O=C(NCc1cc(F)cc(F)c1)C1CCCN(c2cnc3nccnc3c2)C1 (centres undefined) | 707 |
| COCCN1CN=C(Nc2nc(C)c3ccccc3n2)NC1 | 589 |
| CCOc1ccc(S(=O)(=O)N2CCC(C(=O)Nc3ccc4c(c3)OCCO4)CC2)cc1 | 903 |
| CCCC(C(=O)O)c1c(C)nc2ccc(Cl)cc2c1-c1ccccc1 (centres undefined) | 1010 |
| O=C(Nc1cnc(N2CCCCCC2)nc1)c1cccs1 | 859 |
| Cc1oc(-c2ccc(C(=O)N3CCN(C)CC3)cc2)nc1CN1CCc2ccccc21 | 675 |
| Cn1c(CN2CCN(C(=O)c3cc4ccccc4o3)CC2)nc2ccccc21 | 580 |
| CC(C)CCSc1nnc2c(S(=O)(=O)N3CCOCC3)cccn12 | 810 |
| O=C(O)CCc1ccc(NCc2cccc(Oc3ccccc3)c2)cc1 | 1040 |

| SMILES | RP-LC retention time [s] |
| --- | --- |
| O=C(Nc1ccccc1)C1CCN(C(=O)c2ncn3c2COC(c2ccccc2)C3)CC1 (centres undefined) | 752 |
| COc1cccc(CNC(=O)N2CCN(Cc3c(C)noc3C)CC2)c1 | 593 |
| COC(=O)c1c(C)[nH]c(C(=O)N2CCC(CC(=O)NCC3CCCO3)CC2)c1C (centres undefined) | 632 |
| CCCN1C(=O)c2cc(S(=O)(=O)Nc3ccccc3OC)ccc2Oc2cccnc21 | 1080 |
| O=C(NC1CCCCCC1)c1cn(-c2cc(-c3nc(C4CC4)no3)ccn2)cn1 | 1040 |
| Cc1ccc(/C=C2\CCOC2=O)cc1 | 916 |
| Cc1cccc(-c2noc(CN3N=NC4C(=O)N(c5ccc(C(C)C)cc5)C(=O)C43)n2)c1 (centres undefined) | 1150 |
| O=c1ccc(-c2ccc3c(c2)OCO3)nn1CCc1nc(-c2ccncc2)no1 | 730 |
| COc1ccc(CNC(=O)c2cn3cccc(C)c3n2)cc1 | 695 |
| O=C(CCC1CCN(S(=O)(=O)c2ccccc2)CC1)NCc1ccc(F)cc1 | 882 |
| O=S(=O)(c1cccc2cccnc12)N1CCCn2nc(-c3cccs3)cc2C1 | 900 |
| Cc1cccc(S(=O)(=O)N2CCC(n3cnnc3C(C)C)CC2)c1 | 735 |
| O=C(Nc1ccccc1)c1nnc(CCCC(=O)N2CCN(c3ccccn3)CC2)s1 | 638 |
| CN1CC(=O)NC(c2ccccc2F)C1=O (centres undefined) | 513 |
| COc1ccc(CNC(=O)C2CCCN(c3ccc(=O)n(-c4cccc(Cl)c4)n3)C2)c(OC)c1 (centres undefined) | 876 |
| CCOC(=O)c1c(C)c(CCC(=O)N2CCN(CC)CC2)n(CC)c1C | 631 |
| COc1cccc(Cn2nc(-c3nc(-c4cccc(Cl)c4)no3)ccc2=O)c1 | 1180 |
| COc1cccc(CNC(=O)C2CCN(c3ccc(SCc4ccccc4)nn3)CC2)c1 | 758 |

The next lines start with the values.

| RP-LC retention time [s] | SMILES |
| --- | --- |
| 837 | CCN1c2ccc(Cl)cc2C(=O)NC12CCN(C(=O)NCc1ccccc1)CC2 |
| 675 | COc1cccc(COc2cn(C)c(C(=O)Nc3ccc4c(c3)OCCO4)cc2=O)c1 |
| 615 | Cc1nnc(CNC(=O)C(=O)Nc2ccc3c(c2)OCCO3)o1 |
| 789 | Cc1nc(-c2cnccn2)n(CC(=O)Nc2ccc(F)c(Cl)c2)c(=O)c1C |
| 1020 | Cc1ccc(F)cc1S(=O)(=O)N1CCCC(C)(C(=O)NCc2cccc(F)c2)C1 (centres undefined) |
| 1290 | CCCCn1c(=O)c2ccccc2n(Cc2nc(-c3ccc(C)c(C)c3)no2)c1=O |
| 726 | Cc1ccc(OCC(O)CN2CCN(c3ccccc3)CC2)cc1C (centres undefined) |
| 944 | CCn1cc(C(=O)NCc2ccc(C)cc2)c(S(=O)(=O)N2CCSCC2)n1 |
| 685 | O=C(Nc1ccc2c(N3CCCCC3)ncnc2c1)c1ccc(Br)o1 |
| 1270 | Cc1nc2c(sc3nc(-c4ccccc4)ccc32)c(=O)n1CC(=O)Nc1cc(F)cc(F)c1 |
| 634 | O=C(Cn1ncc2c(N3CCN(c4ccccn4)CC3)ncnc21)Nc1cc(F)cc(F)c1 |
| 638 | Cc1ccc(NC(=O)CN2CCc3[nH]c4c(C)ccc(F)c4c(=O)c3C2)cc1F |
| 985 | CCc1cccc(NS(=O)(=O)c2ccc(-c3c(C)noc3C)cc2)c1 |
| 799 | CN1C(=O)c2cccnc2Sc2cc(NC(=O)c3ccccc3C(F)(F)F)ccc21 |
| 645 | Cc1cc(=O)n2c(-c3cccc(NC(=O)c4sc(C)nc4C)c3)csc2n1 |
| 668 | O=C(Cn1nc2c3cc(F)ccc3ncn2c1=O)Nc1ccc2c(c1)OCO2 |

| RP-LC retention time [s] | SMILES |
| --- | --- |
| 725 | CCNC(=O)C1CCN(c2cc(SCC(=O)Nc3ccc(C(=O)OCC)cc3)ncn2)CC1 |
| 698 | CCOc1ccc(NC(=O)Cn2cnc3nc(N4CCCC(C(=O)NC(C)C)C4)sc3c2=O)cc1 (centres undefined) |
| 640 | CCc1cc(=O)n(CC(=O)Nc2ccc(C)c(C)c2)c(N)n1 |
| 626 | CCCNC(=O)C1CCN(c2ccc(SCC(=O)NCc3cc(F)cc(F)c3)nn2)CC1 |
| 723 | COCC(=O)N1CCCN(C2=NS(=O)(=O)C(c3ccc(Cl)cc3)=C2C)CC1 |
| 688 | O=C(NCc1cccs1)C1CN(C(=O)c2ccc(F)c(F)c2)C1 |
| 758 | CCCN1CCn2cc(S(=O)(=O)Nc3cccc(C)c3C)cc2C1=O |
| 795 | CCCCCn1c(=O)c2ccccc2n(Cc2nc(-c3ccc(C)c(C)c3)no2)c1=O |
| 973 | O=C(CCc1nc(CSc2nnc(-c3ccccc3)o2)no1)Nc1ccc(F)c(Cl)c1 |
| 1090 | Cc1ccccc1CNC(=O)C1(C)CCCN(C(=O)Nc2cc(Cl)ccc2C)C1 (centres undefined) |
| 1110 | O=C(Nc1ccc2ccccc2c1)N1CCN(c2ncc(C(F)(F)F)cc2Cl)CC1 |
| 892 | Cc1ccc(C)c(-c2cn3ccn(-c4cccc(F)c4)c(=O)c3n2)c1 |
| 601 | O=C(c1ccc(F)cc1F)N1CCN(c2ccc3nncn3n2)CC1 |
| 790 | Cc1cc(S(=O)(=O)N2CC(F)(F)C[C@H]2CN2CCc3ccccc3C2)ccc1F |
| 802 | COc1ccc(NC(=O)CSc2nc3ccccc3nc2C)cc1 |
